Assay results as given in patent publication US11414429B2, “Compound or pharmaceutically acceptable salt thereof” (RIKEN, priority 2016, dated 2022).
Where two headings read alike, the source gives them in different places.

How the values were obtained:
[1] = tested on: human colorectal cancer cell line, COLO-320DM; assay: Cell proliferation inhibitory activity test (Celltiter-Glo Luminescent Cell Viability Assay); assay type: cell-based; settings: COLO-320DM cells, 96 hours
How it was run: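 Cells grown in RPMI-1640 with 10% FBS and 2 mM glutamine, seeded overnight, then exposed to compound (1% DMSO final) for 96 h at 37° C., 5% CO2. Viability read by ATP luminescence; GI50 is the concentration reducing cell growth to 50% of DMSO control.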

[2] = target: T1, tankyrase 2 (TNKS 2) (Homo sapiens, UniProt Q9H2K2); assay: Tankyrase inhibitory activity test (ELISA, self-polyADP ribosylation), tankyrase 2; assay type: biochemical; settings: self-polyADP ribosylation
T1 construct: 613-1, 116aa; made in house; host or cells: cell-free protein synthesis system
T1 sequence (Q9H2K2 613-1166): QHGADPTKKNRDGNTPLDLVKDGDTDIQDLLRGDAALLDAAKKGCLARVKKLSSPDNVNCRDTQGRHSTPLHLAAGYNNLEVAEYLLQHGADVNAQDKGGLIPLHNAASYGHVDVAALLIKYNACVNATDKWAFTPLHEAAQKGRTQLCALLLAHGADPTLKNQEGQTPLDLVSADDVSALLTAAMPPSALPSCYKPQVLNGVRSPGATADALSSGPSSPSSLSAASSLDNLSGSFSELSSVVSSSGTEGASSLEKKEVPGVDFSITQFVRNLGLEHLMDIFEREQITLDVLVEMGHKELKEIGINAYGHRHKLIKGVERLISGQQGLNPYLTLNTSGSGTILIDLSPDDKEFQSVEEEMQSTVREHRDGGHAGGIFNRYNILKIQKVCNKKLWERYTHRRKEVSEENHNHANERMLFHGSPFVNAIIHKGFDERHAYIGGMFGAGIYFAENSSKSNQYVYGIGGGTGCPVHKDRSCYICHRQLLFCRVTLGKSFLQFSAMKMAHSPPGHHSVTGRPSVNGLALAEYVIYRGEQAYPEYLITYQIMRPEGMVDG
How it was run: (§1)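 Flag-tagged TNKS1 (1,024-1,327aa, SAM+PARP) and TNKS2 (613-1,116aa, ANK5+SAM+PARP) were made cell-free and captured overnight at 4 °C on anti-FLAG M2 plates. After 10 min compound preincubation in Tris pH 8.0/MgCl2/DTT buffer, NAD (225 μM) plus biotin-NAD (25 μM) solution was added for 45 min at 30 °C. Auto-PARylation was read by streptavidin-HRP chemiluminescence, giving IC50 from residual activity.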

[3] = target: T2, tankyrase 1 (TNKS 1) (Homo sapiens, UniProt O95271); assay: Tankyrase inhibitory activity test (ELISA, self-polyADP ribosylation), tankyrase 1; assay type: biochemical; settings: self-polyADP ribosylation
T2 construct: 1,024-1,327aa; made in house; host or cells: cell-free protein synthesis system
T2 sequence (O95271 1024-1327): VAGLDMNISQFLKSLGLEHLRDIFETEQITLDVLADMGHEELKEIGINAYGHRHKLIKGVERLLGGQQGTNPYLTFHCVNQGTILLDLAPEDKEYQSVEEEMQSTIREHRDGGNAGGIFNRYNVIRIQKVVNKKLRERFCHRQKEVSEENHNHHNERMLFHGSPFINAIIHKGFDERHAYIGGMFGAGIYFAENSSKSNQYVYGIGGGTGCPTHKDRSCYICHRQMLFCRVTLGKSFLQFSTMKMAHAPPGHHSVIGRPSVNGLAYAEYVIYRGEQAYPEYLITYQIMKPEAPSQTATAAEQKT
How it was run: as §1

[4] = read-out: COLO-320 DM cell proliferation inhibitory activity (GI50 class)
[5] = tankyrase 2, ELISA, read-out: TNKS2 inhibitory activity (IC50 class)
[6] = tankyrase 1, ELISA, read-out: TNKS1 inhibitory activity (IC50 class)
[7] = class symbols, read-out: COLO-320 DM (cell proliferation inhibitory activity, GI50 value)
[8] = ELISA, class symbols, read-out: TNKS2 (inhibitory activity against tankyrase 2, IC50 value)
[9] = ELISA, class symbols, read-out: TNKS1 (inhibitory activity against tankyrase 1, IC50 value)

SMILES | GI50 [1, 4] [µM] | IC50 [2, 5] [µM] | IC50 [3, 6] [µM] | GI50 [1, 7] [µM] | IC50 [2, 8] [µM] | IC50 [3, 9] [µM]
COc1cc(F)c2c(c1)N(C)C(=O)C21CCN(c2nc3c(c(=O)[nH]2)CCCN3C)CC1 [Example 372, 4-fluoro-6-methoxy-1-methyl-1′-(8-methyl-4-oxo-3,4,5,6,7,8-hexahydropyrido [2,3-d]pyrimidin-2-yl) spiro[indoline-3,4'-piperidin]-2-one] | 0.1 to 0.6 | < 0.02 | < 0.02 | – | – | –
CN(C)CCOc1cc(Cl)c2c(c1)N(C)C(=O)C21CCN(c2nc3c(c(=O)[nH]2)CCCN3C)CC1 [Example 375, 4-chloro-6-[2-(dimethylamino)ethoxy]-1-methyl-1′-(8-methyl-4-oxo-3,4,5,6,7,8-hexahydro-pyrido[2,3-d]pyrimidin-2-yl) spiro[indoline-3,4′-piperidin]-2-one] | 0.1 to 0.6 | < 0.02 | < 0.02 | – | – | –
CN1CCCc2c1nc(N1CCC3(CC1)C(=O)N(C)c1cc(OCCN4CCCCC4)cc(Cl)c13)[nH]c2=O [Example 376, 4-chloro-1-methyl-1′-(8-methyl-4-oxo-3,4,5,6,7,8-hexahydropy-rido[2,3-d]pyrimidin-2-yl)-6-(2-(piperidin-1-yl)ethoxy)spiro [indoline-3,4′-piperidin]-2-one] | 0.1 to 0.6 | < 0.02 | < 0.02 | – | – | –
CN1CCCc2c1nc(N1CCC3(CC1)C(=O)N(C)c1cc(OCCN4CCOCC4)cc(Cl)c13)[nH]c2=O [Example 377, 4-chloro-1-methyl-1′-(8-methyl-4-oxo-3,4,5,6,7,8-hexahydropy-rido[2,3-d]pyrimidin-2-yl)-6-(2-morpholino-ethoxy) spiro[indoline-3,4′-piperidin]-2-one] | 0.1 to 0.6 | < 0.02 | < 0.02 | – | – | –
CN1CCCc2c1nc(N1CCC3(CC1)C(=O)N(C)c1cc(OCCN4CCS(=O)(=O)CC4)cc(Cl)c13)[nH]c2=O [Example 378, 4-chloro-6-[2-(1,1-dioxi-dothio-morpholino)ethoxy]-1-methyl-1′-(8-methyl-4-oxo-3,4,5,6,7,8-hexahydropyrido [2,3-d]pyrimidin-2-yl)spiro [indoline-3,4′-piperidin]-2-one] | 0.6 to 1 | < 0.02 | < 0.02 | – | – | –
CN1CCC(Oc2cc(F)c3c(c2)N(C)C(=O)C32CCN(c3nc4c(c(=O)[nH]3)CCCN4C)CC2)CC1 [Example 380, 4-fluoro-1-methyl-1′-(8-methyl-4-oxo-3,4,5,6,7,8-hexahydropyrido [2,3-d]pyrimidin-2-yl)-6-[(1-methylpiperidin-4-yl)oxy]spiro [indoline-3,4′-piperidin]-2-one] | 0.6 to 1 | < 0.02 | < 0.02 | – | – | –
CN1CCCc2c1nc(N1CCC3(CC1)C(=O)N(CCO)c1cc(OCCO)cc(F)c13)[nH]c2=O [Example 381, 4-fluoro-6-(2-hydroxy-thoxy)-1-(2-hydroxyethyl)-1′-(8-methyl-4-oxo-3,4,5,6,7,8-hexahydropyrido [2,3-d]pyrimidin-2-yl)spiro [indoline-3,4′-piperidin]-2-one] | 0.1 to 0.6 | < 0.02 | < 0.02 | – | – | –
CCN1CCCc2c1nc(N1CCC3(CC1)C(=O)N(CCO)c1cc(F)cc(F)c13)[nH]c2=O [Example 382, 1′-(8-ethyl-4-oxo-3,4,5,6,7-hexahydropyrido-[2,3-d]pyrimidin-2-yl)-4,6-difluoro-1-(2-hy-droxyethyl)spiro [indoline-3,4′-piperidin]-2-one] | 0.1 to 0.6 | < 0.02 | < 0.02 | – | – | –
COCCOc1cc(F)c2c(c1)N(CCO)C(=O)C21CCN(c2nc3c(c(=O)[nH]2)CCCN3C)CC1 [Example 383, 4-fluoro-1-(2-hydroxy-ethyl)-6-(2-methoxyethoxy-1′-(8-methyl-4-oxo-3,4,5,6,7,8-hexahydropyrido [2,3-d]pyrimidin-2-yl))spiro [indoline-3,4′-piperidin]-2-one] | 0.1 to 0.6 | < 0.02 | < 0.02 | – | – | –
CN1CCCc2c1nc(N1CCC3(CC1)C(=O)N(CCO)c1cc(O)cc(F)c13)[nH]c2=O [Example 384, 4-fluoro-6-hydroxy-1-(2-hydroxyethyl)-1′-(8-methyl-4-oxo-3,4,5,6,7,8-hexahydropyrido [2,3-d]pyrimidin-2-yl) spiro[indoline-3,4′-piperidin]-2-one] | 0.1 to 0.6 | < 0.02 | < 0.02 | – | – | –
CN1CCCc2c1nc(N1CCC3(CC1)C(=O)N(CCO)c1cc(OCCN4CCOCC4)cc(F)c13)[nH]c2=O [Example 386, 4-fluoro-1-(2-hydroxy-ethyl)-1′-(8-methyl-4-oxo-3,4,5,6,7,8-hexahydropyrido [2,3-d]pyrimidin-2-yl)-6-(2-morpholino-ethoxy)spiro [indoline-3,4′-piperidin]-2-one] | 0.6 to 1 | < 0.02 | < 0.02 | – | – | –
C[C@@H]1CN(c2cc(F)c3c(c2)N(C)C(=O)C32CCN(c3nc4c(c(=O)[nH]3)CCCN4C)CC2)C[C@H](C)N1 [Example 390, 6-(cis-3,5-dimethyl-piperazin-1-yl)-4-fluoro-1-methyl-1′-(8-methyl-4-oxo-3,4,5,6,7,8-hexahydropyrido [2,3-d]pyrimi-din-2-yl) spiro[indoline-3,4′-piperidin]-2(1H)-one] | – | – | – | 0.1 to 0.6 | < 0.02 | < 0.02
CN1CCCc2c1nc(N1CCC3(CC1)C(=O)N(C)c1cc(N4CC5CCC(C4)N5)cc(F)c13)[nH]c2=O [Example 391, 6-(3,8-diazabicyclo [3.2.1]octan-3-yl)-4-fluoro-1-methyl-1′-(8-methyl-4-oxo-3,4,5,6,7,8-hexahydro-pyrido[2,3-d]pyrimidin-2-yl) spiro[indoline-3,4′-piperidin]-2(1H)-one] | – | – | – | 0.6 to 1 | < 0.02 | < 0.02
CN1CCCc2c1nc(N1CCC3(CC1)C(=O)N(C)c1cc(OCC(=O)O)cc(F)c13)[nH]c2=O [Example 392] | – | – | – | 0.1 to 0.6 | < 0.02 | < 0.02

More lines, now with the values ahead:

GI50 [1, 4] [µM] | IC50 [2, 5] [µM] | IC50 [3, 6] [µM] | GI50 [1, 7] [µM] | IC50 [2, 8] [µM] | IC50 [3, 9] [µM] | SMILES
0.1 to 0.6 | < 0.02 | < 0.02 | – | – | – | [2H]C([2H])([2H])N1CCCc2c1nc(N1CCC3(CC1)C(=O)N(CCO)c1cc(F)cc(F)c13)[nH]c2=O [Example 370, 4,6-difluoro-1-(2-hydroxyethyl)-1′-[8-(methyl-d3)-4-oxo-3,4,5,6,7,8-hexahydro-pyrido [2,3-d]pyrimidin-2-yl] spiro[in-doline-3,4′-piperidin]-2-one]
< 0.1 | < 0.02 | < 0.02 | – | – | – | COc1cc(F)c2c(c1)N(CCO)C(=O)C21CCN(c2nc3c(c(=O)[nH]2)CCCN3C)CC1 [Example 373, 4-fluoro-1-(2-hydroxy-ethyl)-6-methoxy-1′-(8-methyl-4-oxo-3,4,5,6,7,8-hexahydropyrido [2,3-d]pyrimidin-2-yl) spiro[indoline-3,4′-piperidin]-2-one]
< 0.1 | < 0.02 | < 0.02 | – | – | – | CN1CCCc2c1nc(N1CCC3(CC1)C(=O)N(CC#N)c1cc(F)cc(F)c13)[nH]c2=O [Example 374, 2-(4,6-difluoro-1′-(8-methyl-4-oxo-3,4,5,6,7,8-hexahydropyrido [2,3-d]pyrimidin-2-yl)-2-oxospiro[indoline-3,4′-piperidin]-1-yl)acetonitrile]
< 0.1 | < 0.02 | < 0.02 | – | – | – | COc1cc(F)c2c(c1)N(CC#N)C(=O)C21CCN(c2nc3c(c(=O)[nH]2)CCCN3C)CC1 [Example 379, 2-[4-fluoro-6-methoxy-1′-(8-methyl-4-oxo-3,4,5,6,7,8-hexahydropyrido [2,3-d]pyrimidin-2-yl)-2-oxospiro [indoline-3,4′-piperidin]-1-yl] acetonitrile]
< 0.1 | < 0.02 | < 0.02 | – | – | – | CN1CCN(c2cc(F)c3c(c2)N(C)C(=O)C32CCN(c3nc4c(c(=O)[nH]3)CCCN4C)CC2)CC1 [Example 387, 4-fluoro-1-methyl-1′-(8-methyl-4-oxo-3,4,5,6,7,8-hexahydropyrido [2,3-d]pyrimidin-2-yl)-6-(4-methylpiperazin-1-yl)spiro [indoline-3,4′-piperidin]-2-one]
< 0.1 | < 0.02 | < 0.02 | – | – | – | CN1CCCc2c1nc(N1CCC3(CC1)C(=O)N(C)c1cc(OCC4COC4)cc(F)c13)[nH]c2=O [Example 388, 4-fluoro-1-methyl-1′-(8-methyl-4-oxo-3,4,5,6,7,8-hexahydropyrido [2,3-d]pyrimidin-2-yl)-6-(oxetan-3-ylmethoxy) spiro[indoline-3,4′-piperidin]-2-one]
< 0.1 | < 0.02 | < 0.02 | – | – | – | CN1CCCc2c1nc(N1CCC3(CC1)C(=O)N(C)c1cc(OC4CCOCC4)cc(F)c13)[nH]c2=O [Example 389, 4-fluoro-1-methyl-1′-(8-methyl-4-oxo-3,4,5,6,7,8-hexahydropyrido [2,3-d]pyrimidin-2-yl)-6-[(tetrahydro-2H-pyran-4-yl)oxy]spiro [indoline-3,4′-piperidin]-2-one]
